The target of one experiment is T1, recombinant human mPGES-1 (Homo sapiens, UniProt O14684).
T1 construct: made in house; host or cells: Rosetta E. coli (membrane/microsome fraction)
T1 sequence (O14684 1-152): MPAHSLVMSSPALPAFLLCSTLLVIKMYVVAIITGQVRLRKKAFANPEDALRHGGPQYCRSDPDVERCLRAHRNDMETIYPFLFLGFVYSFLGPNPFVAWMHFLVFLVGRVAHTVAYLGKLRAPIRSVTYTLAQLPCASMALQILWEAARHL
Description: mPGES-1 HTRF assay (inhibition of PGE2 formation from PGH2). It counts as biochemical.
Conditions: not given
As for the experimental part: The basis of the assay used is to measure the inhibition of microsomal prostaglandin E2 synthase-1 (mPGES-1) dependent prostaglandin (PG) E2 formation from PGH2 by different compounds. Thus, the formation of PGE2 is used as signal and a lowering of this signal can be interpreted as inhibition of mPGES-1. […] Microsomes from Rosetta E. coli bacteria expressing recombinant human mPGES-1 can be derived as described below: Inoculate 5 ml LB with Amp and Chloro with bacteria from freeze culture. Incubate over night at 37° C. with 200 rpm. Thereafter, inoculate 500-800 ml LB containing Amp and Chloro with the 5 ml on culture and grow to OD640 of 0.6-0.8. Chill the culture to +4° C. before induction. Induce the culture with IPTG at a final concentration of 400 μM. Express the protein at room temp 18-23° C. with 200 rpm shaking over night. The following steps can be performed on the following day: • 1. Spin down the cells in 250 ml centrifuge flasks for 15 min at 7000 rpm • 2. Dissolve the pellet from 250 ml culture in 12.5 ml homogenization buffer • 3. Disintegrate the cells by sonication, 4×10 seconds at 35% amplitude • 4. Add 2.5 ml MgCl2 (100 mM) and DNase 12.5 μl (0.8 mg/ml) and incubate on ice for 30 min • 5. Spin down the bacteria debris and save the supernatant, 7000 rpm for 15 min • 6. Isolate the protein containing membranes in the supernatant by ultracentrifugation 45000×g for 1 hour. • 7. Discard the supernatant and dissolve the pellet in 20 mM KPi buffer and aliquot the enzyme and store aliquots at −80° C. Before each experiment is performed an aliquot of the enzyme is thawed and it can then be dissolved in 0.1 M KPi pH 7.4 buffer containing 2.5 mM GSH. 50 μl of this enzyme solution is subsequently dispensed in a 384-well plate at room temperature. 0.5 μl of the inhibitor dissolved in DMSO is thereafter added to each well and incubated for 25 minutes at room temperature. Subsequently, 2 μl of PGH2 dissolved in an appropriate solvent is added to each well and after one minute at room temperature, the acidified stop solution containing FeCl2 is added. 4 μl of the total volume is transferred to a separate plate and diluted 750-fold in two separate steps before quantification of PGE2. In order to quantitate the amount of PGE2 that has been formed, a homogenous time resolved fluorescent (HTRF) detection of PGE2 can be performed by the use of a commercially available kit from CisBio essentially according to the manufacturer's protocol. […] The sealing film is thereafter removed from the NC wells. • 5 μl Eu3+-cryptate labeled anti-PGE2 can now be added to rows 1 to 24 by using a Multidrop. • The plate can now be covered with sealing film. • The plate can now be centrifuge at 1200 rpm for 1 minute and place at 4° C. overnight. After the over night incubation the fluorescence is measured by the use of an appropriate microplate reader. […] The extent of the specific HTRF is measured as a ratio of the emission intensity at 665 nm vs. that at 620 nm. A standard curve using synthetic PGE2 is used to quantify the amount of PGE2 in unknown samples. The degree of inhibition can be calculated as percent inhibition by dividing the amount of PGE2 formed in unknown samples by the amount of PGE2 formed in control samples.
`CC(=O)NC(C)c1ccc(Cl)c(Nc2nc3cc(C(=O)Nc4ccc(Br)cc4)ccc3n2C)c1` (centres unmarked) [Example 1, 2-[5-(1-Acetamidoethyl)-2-chlorophenylamino]-N-(4-bromophenyl)-1-methylbenzimidazole-5-carboxamide]: the inhibition at 10 µM turned out to be 100%.

The same experiment, now with this note: compound concentration of 10 μM, HTRF assay.
As to `Cn1c(Nc2cc(CNC(=O)C3(C)CCCCC3)ccc2Cl)nc2cc(Cl)c(NC(=O)C3CCCC3)cc21` [Example 6, N-{4-chloro-3-[5-chloro-6-(cyclopentylamido)-1-methyl-2-benzimidazolylamino]benzyl}-1-methylcyclohexylamide], the “% inhibition” value was 100%.

Still in this experiment, the particulars now being: compound concentration of 10 μM, HTRF assay; read-out: % inhibition.
In the case of `Cn1c(Nc2cc(CNC(=O)C3(C)CCCCC3)ccc2Cl)nc2cc(C(=O)NC3CCCC3)c(Cl)cc21` [Example 3, 6-Chloro-2-{2-chloro-5-[(1-methylcyclohexylamido)methyl]phenylamino}-N-cyclopentyl-1-methylbenzimidazole-5-carboxamide], the inhibition at 10 µM came out at 100%.
For the compound `CC1(C(=O)NCc2ccc(Cl)c(Nc3nc4cc(C(=O)N5CCCC5)ccc4[nH]3)c2)CCCCC1` [Example 4, N-{4-Chloro-3-[5-(1-pyrrolidinylcarbonyl)-2-benzimidazolylamino]benzyl}-1-methylcyclohexylamide], the inhibition at 10 µM came out at 83%.
As to `Cn1c(Nc2cc(CNC(=O)C3(C)CCCCC3)ccc2Cl)nc2cc(Cl)c(NC(=O)OC(C)(C)C)cc21` [Example 5, tert-Butyl 5-chloro-2-{2-chloro-5-[(1-methylcyclohexylamido)methyl]phenylamino}-1-methyl-6-benzimidazolylcarbamate], the inhibition at 10 µM is 100%.
With `Cn1c(Nc2cc(CNC(=O)C3(C)CCCCC3)ccc2Cl)nc2cc(S(=O)(=O)NC3CCCC3)ccc21` [Example 7, N-{4-Chloro-3-[5-(N-cyclopentylsulfamoyl)-1-methyl-2-benzimidazolylamino]benzyl}-1-methylcyclohexylamide], the inhibition at 10 µM was 98%.
Take `Cn1c(Nc2cc(CNC(=O)C3(C)CC3)ccc2Cl)nc2cc(C(=O)NCC3CCCCC3)ccc21` [Example 8, 2-{2-Chloro-5-[(1-methylcyclopropylamido)methyl]phenylamino}-N-cyclohexylmethyl-1-methylbenzimidazole-5-carboxamide]: the inhibition at 10 µM is 98%.
Take `Cn1c(Nc2cc(CNS(=O)(=O)c3cccs3)ccc2Cl)nc2cc(C(=O)NCC3CCCCC3)ccc21` [Example 9, 2-{2-Chloro-5-[(2-thienylsulfonamido)methyl]phenylamino}-N-cyclohexylmethyl-1-methylbenzimidazole-5-carboxamide]: the inhibition at 10 µM stood at 98%.
`Cn1c(Nc2cc(CNC(=O)C3(C)CC3)ccc2Cl)nc2cc(C(=O)Nc3ccc(Br)cc3)ccc21` [Example 10]: the inhibition at 10 µM was determined as 100%.
On to `Cn1c(Nc2cc(CNC(=O)C3(C(F)(F)F)CC3)ccc2Cl)nc2cc(C(=O)NCC3CC3)ccc21` [Example 11, 2-{2-chloro-5-[(1-trifluoromethylcyclopropylamido)methyl]phenylamino}-N-cyclopropylmethyl-1-methylbenzimidazole-5-carboxamide], for which the inhibition at 10 µM worked out at 100%.
The same measure, in the same setting: in the case of `Cn1c(Nc2cc(CNC(=O)C3(C)CCCCC3)ccc2Cl)nc2cc(C(=O)N3CCCC3)ccc21` [Example 12, N-{4-Chloro-3-[1-methyl-5-(1-pyrrolidinylcarbonyl)-2-benzimidazolylamino]benzyl}-1-methylcyclohexylamide] it was 100%; in that of `CC1(C(=O)NCc2ccc(Cl)c(Nc3nc4ccc(C(=O)NC5CCCC5)cc4[nH]3)c2)CCCCC1` [Example 13, 2-{2-Chloro-5-[(1-methylcyclohexylamido)methyl]phenylamino}-N-cyclopentylbenzimidazole-5-carboxamide], 100%; in that of `Cn1c(Nc2cc(CNC(=O)C3(C)CCCCC3)ccc2Cl)nc2cc(C(=O)NC3CCCC3)ccc21` [Example 14, 2-{2-Chloro-5-[(1-methylcyclohexylamido)methyl]phenylamino}-N-cyclopentyl-1-methylbenzimidazole-5-carboxamide], 100%.
Still for that read-out and setting: the same measure for `Cn1c(Nc2cc(CNC(=O)C3(C)CCCCC3)ccc2Cl)nc2cc(C(=O)NCCOC(C)(C)C)ccc21` [Example 15, N-(2-tert-Butoxyethyl)-2-{2-chloro-5-[(1-methylcyclohexylamido)methyl]phenylamino}-1-methylbenzimidazole-5-carboxamide]: 99%; for `Cn1c(Nc2cc(CNC(=O)C3(C)CCCCC3)ccc2Cl)nc2cc(C(=O)NCC3CCCCC3)ccc21` [Example 16, 2-{2-Chloro-5-[(1-methylcyclohexylamido)methyl]phenylamino}-N-cyclohexylmethyl-1-methylbenzimidazole-5-carboxamide]: 80%.
On to `Cn1c(Nc2cc(CNC(=O)C3(C)CCCCC3)ccc2Cl)nc2cc(C(=O)NCCN3CCCCC3)ccc21` [Example 17, 2-{2-Chloro-5-[(1-methylcyclohexylamido)methyl]phenylamino]-1-methyl-N-[2-(1-piperidinyl)ethyl]benzimidazole-5-carboxamide], for which the inhibition at 10 µM worked out at 95%.
For `Cn1c(Nc2cc(CNC(=O)C3(C)CCCCC3)ccc2Cl)nc2cc(C(=O)NCC3CCCO3)ccc21` (centres unmarked) [Example 18, 2-{2-Chloro-5-[(1-methylcyclohexylamido)methyl]phenylamino]-1-methyl-N-[(2-tetrahydrofuryl)methyl]benzimidazole-5-carboxamide], the inhibition at 10 µM is 98%.
For `CN1CCCCC1CNC(=O)c1ccc2c(c1)nc(Nc1cc(CNC(=O)C3(C)CCCCC3)ccc1Cl)n2C` (centres unmarked) [Example 19, 2-{2-Chloro-5-[(1-methylcyclohexylamido)methyl]phenylamino]-1-methyl-N-[(1-methyl-2-piperidinyl)methyl]benzimidazole-5-carboxamide], the inhibition at 10 µM was 98%.
As for `Cn1c(Nc2cc(CNC(=O)C3(C)CCCCC3)ccc2Cl)nc2cc(C(=O)NCc3ccccn3)ccc21` [Example 20, 2-{2-Chloro-5-[(1-methylcyclohexylamido)methyl]phenylamino}-1-methyl-N-(2-pyridinylmethyl)benzimidazole-5-carboxamide], the inhibition at 10 µM worked out at 100%.
For the compound `Cn1c(Nc2cc(CNC(=O)C3(C)CCCCC3)ccc2Cl)nc2cc(C(=O)Nc3ccc(Br)cc3)ccc21` [Example 21, N-(4-Bromophenyl)-2-{2-chloro-5-[(1-methylcyclohexylamido)methyl]-phenylamino}-1-methylbenzimidazole-5-carboxamide], the inhibition at 10 µM was 100%.
As for `CN(C(=O)c1ccc2c(c1)nc(Nc1cc(CNC(=O)C3(C)CCCCC3)ccc1Cl)n2C)C1CCCC1` [Example 22, 2-{2-Chloro-5-[(1-methylcyclohexylamido)methyl]phenylamino}-N-cyclopentyl-N,1-dimethylbenzimidazole-5-carboxamide], the inhibition at 10 µM worked out at 98%.
For the compound `CC1(C(=O)NCc2ccc(Cl)c(Nc3nc4cc(C(=O)NC5CCCC5)c(Cl)cc4n3C3CCCC3)c2)CCCCC1` [Example 23, 6-Chloro-2-{2-chloro-5-[(1-methylcyclohexylamido)methyl]phenylamino}-N,1-dicyclopentylbenzimidazole-5-carboxamide], the inhibition at 10 µM was 100%.
Still for that read-out and setting: in the case of `CC1(C(=O)NCc2ccc(Cl)c(Nc3nc4cc(Cl)c(C(=O)NC5CCCC5)cc4[nH]3)c2)CCCCC1` [Example 24, 6-Chloro-2-{2-chloro-5-[(1-methylcyclohexylamido)methyl]phenylamino}-N-cyclopentylbenzimidazole-5-carboxamide] it was 97%.

These data come from patent US8921405B2, “Compounds” (Orexo AB, priority 2009, dated 2014).
